EP4737453A1, “NOVEL SELENOPHENE DERIVATIVES” (Aigen Sciences Inc., priority 2023, dated 2025)

What was measured:
[1] = target: T1, SOS1 and KRAS G12D interaction (Homo sapiens, UniProt Q07889); assay type: biochemical
T1 sequence (Q07889 564-1049 limits assumed): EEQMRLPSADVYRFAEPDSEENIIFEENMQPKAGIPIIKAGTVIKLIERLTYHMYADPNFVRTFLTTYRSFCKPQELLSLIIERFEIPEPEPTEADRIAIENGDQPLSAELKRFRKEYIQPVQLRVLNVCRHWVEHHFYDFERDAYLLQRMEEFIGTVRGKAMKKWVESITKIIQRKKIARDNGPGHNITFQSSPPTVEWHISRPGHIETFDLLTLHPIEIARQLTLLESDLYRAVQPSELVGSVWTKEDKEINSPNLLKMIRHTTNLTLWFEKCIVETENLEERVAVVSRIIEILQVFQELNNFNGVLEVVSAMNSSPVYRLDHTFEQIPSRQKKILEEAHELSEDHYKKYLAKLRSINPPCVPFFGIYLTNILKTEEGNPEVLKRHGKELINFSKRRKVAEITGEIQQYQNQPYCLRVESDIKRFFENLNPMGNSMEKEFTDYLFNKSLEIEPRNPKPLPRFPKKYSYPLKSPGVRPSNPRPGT

[2] = target: T2, SOS2 and KRAS G12C interaction (Homo sapiens, UniProt Q07890); assay type: biochemical
T2 sequence (Q07890 1-1332): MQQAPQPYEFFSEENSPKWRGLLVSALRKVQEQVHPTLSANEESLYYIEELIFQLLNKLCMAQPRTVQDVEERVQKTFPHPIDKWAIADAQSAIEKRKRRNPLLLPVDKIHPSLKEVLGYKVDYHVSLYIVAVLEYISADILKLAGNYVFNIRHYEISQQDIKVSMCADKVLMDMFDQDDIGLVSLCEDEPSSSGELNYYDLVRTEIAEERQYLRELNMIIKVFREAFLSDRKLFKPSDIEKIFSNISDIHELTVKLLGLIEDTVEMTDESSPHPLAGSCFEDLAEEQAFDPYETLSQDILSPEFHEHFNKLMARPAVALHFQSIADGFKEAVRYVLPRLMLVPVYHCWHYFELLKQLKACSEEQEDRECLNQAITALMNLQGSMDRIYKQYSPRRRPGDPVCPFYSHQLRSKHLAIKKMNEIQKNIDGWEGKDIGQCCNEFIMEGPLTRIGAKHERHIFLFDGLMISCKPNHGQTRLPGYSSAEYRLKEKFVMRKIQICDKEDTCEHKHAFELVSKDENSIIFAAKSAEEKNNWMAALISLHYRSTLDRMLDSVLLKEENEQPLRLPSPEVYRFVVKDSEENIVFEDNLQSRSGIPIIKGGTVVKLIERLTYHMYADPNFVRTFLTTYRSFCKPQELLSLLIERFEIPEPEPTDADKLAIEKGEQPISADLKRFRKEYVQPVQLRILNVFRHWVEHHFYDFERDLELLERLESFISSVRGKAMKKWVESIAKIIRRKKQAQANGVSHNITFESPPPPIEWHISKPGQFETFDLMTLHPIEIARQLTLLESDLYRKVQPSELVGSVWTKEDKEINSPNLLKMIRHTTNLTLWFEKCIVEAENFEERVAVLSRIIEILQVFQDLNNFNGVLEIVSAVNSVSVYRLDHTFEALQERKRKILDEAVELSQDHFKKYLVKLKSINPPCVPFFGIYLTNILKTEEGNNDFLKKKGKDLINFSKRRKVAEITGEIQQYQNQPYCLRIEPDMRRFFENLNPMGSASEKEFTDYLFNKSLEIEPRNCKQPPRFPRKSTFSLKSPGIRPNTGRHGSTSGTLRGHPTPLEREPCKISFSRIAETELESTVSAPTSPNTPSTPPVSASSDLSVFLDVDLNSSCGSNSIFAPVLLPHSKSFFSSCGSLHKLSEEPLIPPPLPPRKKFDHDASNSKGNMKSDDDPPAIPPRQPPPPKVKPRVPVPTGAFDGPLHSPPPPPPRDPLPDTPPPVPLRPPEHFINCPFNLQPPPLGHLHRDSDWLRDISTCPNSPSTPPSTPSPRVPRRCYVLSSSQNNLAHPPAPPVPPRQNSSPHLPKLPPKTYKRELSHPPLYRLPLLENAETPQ

[3] = target: T3, SOS1 and KRAS G12C interaction (Homo sapiens, UniProt Q07889); assay: Biochemical analysis of the inhibitory activity of SOS1 and KRAS G12C interaction (time-resolved fluorescence, 665/615 nm)
T3 sequence (Q07889 564-1049 limits assumed): T1 sequence (Q07889 564-1049 limits assumed)
Method: Biochemical analysis of the inhibitory activity of SOS1 and KRAS G12C interaction
In this experimental example, the efficacy of the compound according to the present invention in inhibiting the binding of KRAS and SOS1 was biochemically measured. A KRAS G12C working solution was prepared by adding biotin-linked KRAS G12C protein and europium-linked streptavidin to assay buffer solution (20 mM HEPES, 50 mM NaCl, 200 µg/mL […] (BSA), 0.01% Pluronic F127). Then, SOS1, in which a tag consisting of six histidine residues is covalently linked, and anti-histidine tag antibody D2 were added to the assay buffer to prepare an SOS1 working solution. After these two working solutions were added to the wells of a well plate, solutions diluted according to the experimental concentration of the test compound from the 10 mM dimethyl sulfoxide (DMSO) stock solution of the Example compound or positive control compound were added to the wells in 100 nL aliquots using an Echo automatic dispenser (Beckman Coulter, USA), or a DMSO blank was added to the wells.

How did the IC50 [1] turn out when CNCc1ccccc1-c1c[se]c([C@@H](C)Nc2nc(C)nc3cc(OC)c(OC)cc23)c1 [Example 1, (R)-6,7-dimethoxyl-2-methyl-N-(1-(4-(2-((methylamino)methyl)phenyl)selenophen-2-yl)ethyl)quinazolin-4-amine] was run?
The IC50 was 8.4 nM.

What about the IC50 [2] of the same molecule?
Its IC50 is 24600 nM.

What about the IC50 [3] of the same molecule?
Its IC50 is 18.6 nM.
